# Measured values taken from PubChem BioAssay AID608 (Sanford-Burnham Center for Chemical Genomics, 2007).
# Where “and” joins values, the source holds several entries; their conditions need not be identical. Equal values may be shown once. Calls of active or inactive are those of the source. How the calls were made is not given here.
# Target: Peptidyl-prolyl cis-trans isomerase FKBP1A (Homo sapiens) (UniProt P62942)
# Experiment: small-molecule binding to FKBP12 – biophysical, NMR detection (AID 608)
# Conditions: purified FKBP12
# Sequence of Peptidyl-prolyl cis-trans isomerase FKBP1A (Homo sapiens) (P62942 whole entry, looked up): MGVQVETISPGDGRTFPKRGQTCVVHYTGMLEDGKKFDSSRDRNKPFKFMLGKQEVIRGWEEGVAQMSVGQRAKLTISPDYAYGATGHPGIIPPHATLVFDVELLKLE
row,Compound,Kd
1,CC(C1OC(C)(C)C(O)C1O)[C@@H]1CC[C@]2(C)C3=CCC4C(C)(C)C(=O)CC[C@]4(C)C3CC[C@@]12C (stereo partly specified),> 4 mM (inactive)
2,Cc1ccc(NC(=O)C(=O)Nc2ccccn2)cc1,> 4 mM (inactive)
3,O=C(Nc1cnc2ccccn2c1=O)c1ccc(F)cc1,> 4 mM (inactive)
4,C=C(C)CSc1nc2nc(C)cc(C)n2n1,> 4 mM (inactive)
5,Clc1ccccc1-c1nc(-c2cccnc2)no1,> 4 mM (inactive)
6,O=C(Nc1ccccc1)Nc1ccccc1,> 4 mM (inactive)
7,N#CC(O[C@@H]1O[C@H](CO[C@@H]2O[C@H](CO)[C@@H](O)[C@H](O)[C@H]2O)[C@@H](O)[C@H](O)[C@H]1O)c1ccccc1 (stereo partly specified),> 4 mM (inactive)
8,Cc1cc(N)n(C2CCOC(C)(C)C2)n1 (stereo unspecified),> 4 mM (inactive)
9,Nc1csc(C(=O)O)c1,> 4 mM (inactive)
10,CC1(C)CC[C@]2(C(=O)O)CC[C@]3(C)C(=CCC4[C@@]5(C)CC[C@H](O)[C@@](C)(CO)C5CC[C@]43C)C2C1 (stereo partly specified),> 4 mM (inactive)
11,O=C(O)c1ccc(N2CCCCC2)cc1,> 4 mM (inactive)
12,O=C(Nc1ccc(Cl)cc1)N1CCCC1,inactive
13,NCc1ccc2c(c1)OCO2,> 4 mM (inactive)
14,Cc1n[nH]c(=S)n(/N=C/c2ccccc2)c1=O,> 4 mM (inactive)
15,Nc1nnc(SCc2ccc(F)cc2Cl)s1,> 4 mM (inactive)
16,Cc1cc(C(=O)N2CCN(c3ncccn3)CC2)cs1,> 4 mM (inactive)
17,CC(=O)O[C@H]1C[C@@H](OC(C)=O)C(C)(C)C2C[C@@H](OC(C)=O)[C@]3(C)C([C@H](OC(C)=O)C[C@@]4(C)[C@H](c5ccoc5)OC(=O)[C@H]5O[C@]543)[C@]21C (stereo partly specified),> 4 mM (inactive)
18,Cc1ccc(Cl)cc1NS(=O)(=O)N1CCCCC1,inactive
19,Cc1cc(C)nc(/N=C(/N)N2CCN(C)CC2)n1,> 4 mM (inactive)
20,CC(C)n1c(-c2ccncc2)n[nH]c1=S,> 4 mM (inactive)
21,Nc1ncnc(NCCCO)c1[N+](=O)[O-],> 4 mM (inactive)
22,Cc1cc2ncc(C(=O)Nc3ccccc3)c(C)n2n1,inactive
23,O=CN1CCN(C2CC(=O)N(c3ccccc3)C2=O)CC1 (stereo unspecified),> 4 mM (inactive)
24,Cc1cc(SCCF)n2ncnc2n1,> 4 mM (inactive)

row,Compound,Kd
1,Nc1nc2[nH]c(=O)c(=O)[nH]c2c(=O)[nH]1,> 4 mM (inactive)
2,COc1ccccc1-c1noc(-c2ccco2)n1,> 4 mM (inactive)
3,Oc1cccc2[nH]ccc12,> 4 mM (inactive)
4,C[C@@H]1CC[C@H]2[C@@H](C)C(=O)O[C@@H]3OC4(C)CC[C@@H]1[C@]32OO4,> 4 mM (inactive)
5,COc1ccc(-c2coc3cc(O)ccc3c2=O)c(O)c1O,> 4 mM (inactive)
6,O=C(NCN1CCOCC1)c1cccnc1,> 4 mM (inactive)
7,NC(=O)CNC(=O)c1ccccc1,> 4 mM (inactive)
8,Cc1nc(N)sc1C(=O)Nc1nccs1,> 4 mM (inactive)
9,Cc1ccc(F)cc1NC(=O)c1ccc2c(c1)OCO2,> 4 mM (inactive)
10,O=C(c1ccccc1)N1CCNCC1,> 4 mM (inactive)
11,COc1ccc(-c2coc3cc(OC(C)=O)cc(OC(C)=O)c3c2=O)cc1,> 4 mM (inactive)
12,Cc1nc2nc(Cc3ccccc3)nn2c(C)c1Cl,> 4 mM (inactive)
13,CCc1ccc(OCC(=O)N2CCOCC2)cc1,0.435 mM
14,COc1ccc(S(=O)(=O)N2CCOCC2)cc1C(C)C,> 4 mM (inactive)
15,CN(C)c1ccc(CNn2cnnc2)cc1,> 4 mM (inactive)
16,CC(=O)NC12CC3CC(CC(O)(C3)C1)C2,> 4 mM (inactive)
17,CC1(C(=O)O)CC2C=CC1C2 (stereo unspecified),> 4 mM (inactive)
18,O=C1CSC(=O)N1CN1CCOCC1,> 4 mM (inactive)
19,COc1ccccc1NC(=O)C1CCCCC1,> 4 mM (inactive)
20,CC(C)=CC1C(C(=O)O)C1(C)C (stereo unspecified),> 4 mM (inactive)
21,O=C(O)c1ccc2nccnc2c1,> 4 mM (inactive)
22,CCP(=O)(CC)c1cccc(C)c1,> 4 mM (inactive)
23,O=S(=O)(O)c1cc[n+]([O-])cc1,> 4 mM (inactive)
24,O=C(O)Cn1c(=O)sc2ccccc21,> 4 mM (inactive)

row,Compound,Kd
1,O=S(=O)(Nc1cccc2cn[nH]c12)c1ccc(F)cc1,> 4 mM (inactive)
2,O=S(=O)(N1CCCCC1)n1nnc2ccccc21,> 4 mM (inactive) and 385 µM
3,COc1ccc(Cc2nnc3c4cnn(C)c4ncn23)cc1,> 4 mM (inactive)
4,O=[N+]([O-])c1ccc(/C=N/c2ncn[nH]2)cc1,> 4 mM (inactive)
5,CC1(C)C2C[C@@H](O)[C@]3(C)C(CC[C@@]4(C)[C@H](c5ccoc5)OC(=O)[C@H]5O[C@]543)[C@@]2(C)[C@@H](O)C[C@H]1O (stereo partly specified),> 4 mM (inactive)
6,CC[C@H]1CN2CCC1C[C@@H]2[C@@H](O)c1ccnc2ccc(OC)cc12 (stereo partly specified),> 4 mM (inactive)
7,CCNC(=O)CC[C@H](N)C(=O)O,> 4 mM (inactive)
8,COc1ccc(S(=O)(=O)Nc2ccccn2)c(C)c1C,> 4 mM (inactive)
9,CSc1nc(C)c(Oc2ccccc2)c(=O)n1C,> 4 mM (inactive)
10,CCC(=O)NC(=S)Nc1ccc(N2CCOCC2)cc1,> 4 mM (inactive)
11,NCc1ccc2occc2c1,> 4 mM (inactive)
12,COC1C(O)C(O)C(O)[C@@H](O)C1O (stereo partly specified),> 4 mM (inactive)
13,CN1CCN(S(=O)(=O)c2ccc(=O)[nH]c2)CC1,> 4 mM (inactive)
14,COC(=O)NCc1cc2cc(Cl)ccc2[nH]1,> 4 mM (inactive)
15,CC(C)CC(=O)Nc1c[nH]c(=O)[nH]c1=O,> 4 mM (inactive)
16,CC(=O)c1cc(C)ccc1OC(=O)c1cccnc1,> 4 mM (inactive)
17,O=[N+]([O-])c1cccc(CN2CCC(O)CC2)c1,> 4 mM (inactive)
18,COC(=O)[C@@H]1OC(=O)[C@H]2O[C@@]23[C@@]1(C)CCC1[C@@]2(C)CCC(=O)C(C)(C)C2C[C@@H](OC(C)=O)[C@]13C (stereo partly specified),> 4 mM (inactive)
19,O=c1ccnc(Nc2ccccc2O)[nH]1,> 4 mM (inactive)
20,Cc1ccc(CCC(N)=O)o1,> 4 mM (inactive)
21,S=c1nc(C2CC2)[nH]c2ccccc12,> 4 mM (inactive)
22,OC[C@H]1O[C@@](CO)(O[C@@H]2O[C@H](CO)[C@@H](O)[C@H](O)[C@H]2O)[C@@H](O[C@@H]2O[C@H](CO)[C@@H](O)[C@H](O)[C@H]2O)[C@@H]1O,> 4 mM (inactive)
23,COC(=O)Cc1csc(N)n1,> 4 mM (inactive)
24,O=C1CSC(=Nc2cccc(C(=O)O)c2)N1,> 4 mM (inactive)

row,Compound,Kd
1,O=C(Nc1nnc(-c2ccncc2)o1)c1cccs1,> 4 mM (inactive)
2,CC(=O)c1ccc[nH]1,> 4 mM (inactive)
3,O=C(O)c1cccnc1N1CCOCC1,> 4 mM (inactive)
4,CS(=O)(=O)NN=C1CCCCC1,> 4 mM (inactive)
5,CSc1nc(-c2ccco2)nn1S(C)(=O)=O,> 4 mM (inactive)
6,COc1cccc(C(=O)N2CCOCC2)c1,> 4 mM (inactive)
7,Cn1c([O-])c([N+](C)(C)C)c(=O)n(C)c1=O,> 4 mM (inactive)
8,CC1(C)Oc2ccc3ccc(=O)oc3c2CC1O (stereo unspecified),> 4 mM (inactive)
9,COc1ccc2c(=O)c(CC(=O)O)coc2c1,> 4 mM (inactive)
10,O=C1C2C3CCC(O3)C2C(=O)N1c1cccc(F)c1 (stereo unspecified),> 4 mM (inactive)
11,O=C1c2ccncc2C(=O)N1CNc1ccccn1,> 4 mM (inactive)
12,NS(=O)(=O)c1ccc(NC(=O)C(F)(F)F)cc1,> 4 mM (inactive)
13,O=C(O)c1ccc(CN2CCCCC2)o1,> 4 mM (inactive)
14,NCc1ccc2c(c1)OCCCO2,> 4 mM (inactive)
15,CC1(C)C=CC(=O)[C@@]2(C)C1CC(=O)[C@]1(C)C2CC[C@@]2(C)[C@H](c3ccoc3)OC(=O)C3OC321 (stereo partly specified),> 4 mM (inactive)
16,Nc1cccc(OCC(=O)N2CCOCC2)c1,> 4 mM (inactive)
17,O=C(c1cc(-c2ccccc2)on1)N1CCCC1,> 4 mM (inactive)
18,c1ccc(Cn2cccc2)nc1,> 4 mM (inactive)
19,O=S(=O)(Cc1ccc(Cl)cc1)N1CCCC1,> 4 mM (inactive)
20,CC(=O)NC1=C(N(C)C)C(=O)c2ccccc2C1=O,> 4 mM (inactive)
21,CCOC(=O)c1ccc(NS(=O)(=O)N2CCOCC2)cc1,inactive
22,CC(=O)NC(O)C(=O)c1ccccc1 (stereo unspecified),> 4 mM (inactive)
23,O=C(NC(O)C(=O)c1ccccc1)c1ccco1 (stereo unspecified),> 4 mM (inactive)
24,CC(=O)NS(=O)(=O)c1ccc(C)cc1,> 4 mM (inactive)

row,Compound,Kd
1,CN1CCN(CC(=O)N2CCc3ccccc32)CC1,> 4 mM (inactive)
2,O=C(CCc1ccc(O)cc1)c1c(O)cc(O)cc1O[C@@H]1O[C@H](CO)[C@@H](O)[C@H](O)[C@H]1O,> 4 mM (inactive)
3,CC1=NN(c2ccc(N)cc2)C(=O)C1,> 4 mM (inactive)
4,CCOC(=O)C1CCN(c2ccc(C#N)cc2)CC1,> 4 mM (inactive)
5,CC(=O)Nc1ccc2c(c1)CCC2=O,> 4 mM (inactive)
6,COC1=CC(=O)C=C(OC)C1=O,> 4 mM (inactive)
7,Cc1nn(C)c2sc(CO)cc12,> 4 mM (inactive)
8,CCC(/C=C/[C@@H](C)[C@H]1CCC2C3CC=C4C[C@@H](O)CC[C@]4(C)C3CC[C@@]21C)C(C)C (stereo partly specified),> 4 mM (inactive)
9,Nc1nc(SCC(=O)c2ccc([N+](=O)[O-])cc2)n[nH]1,> 4 mM (inactive)
10,NC(=O)Cc1nc2ccccc2[nH]1,> 4 mM (inactive)
11,OC(CCl)c1ccc(-n2cncn2)cc1 (stereo unspecified),> 4 mM (inactive)
12,Nc1c2c3c(sc2nc(=O)n1N)CCCC3,> 4 mM (inactive)
13,Cc1nnsc1C(=O)Nc1ccccn1,> 4 mM (inactive)
14,Cc1nn(CC(=O)Nc2ccccn2)c(=O)c2ccccc12,> 4 mM (inactive)
15,O=C(O)c1cncc(-c2cccs2)c1,> 4 mM (inactive)
16,Cn1c(=O)n(C)c2cc(C(N)=O)ccc21,> 4 mM (inactive)
17,CC(=O)Oc1ccc(N2C(=O)C3C4C=CC(O4)C3C2=O)cc1 (stereo unspecified),> 4 mM (inactive)
18,Cc1ccccc1NC(=O)CC1NCCNC1=O (stereo unspecified),> 4 mM (inactive)
19,Cc1nc2sccn2c1C(=O)O,> 4 mM (inactive)
20,CC(C)(C#N)O[C@@H]1O[C@H](CO)[C@@H](O)[C@H](O)[C@H]1O,> 4 mM (inactive)
